Test results: PubChem BioAssay (NCI)
“And” between values parts separate entries of the source, which are not always exact repeats. Equal entries are not always repeated.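 Step 1: Grow cells in 96-well plates. Step 2: Expose to compound for 48 hours at 5 concentrations. Step 3: Interpolate endpoints linearly; if unreached, use highest concentration. GI50 marks 50% less growth. At the TGI there is no net growth.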

Columns and labels:
Assay in all cases: NCI-60 cell line screen, 48 h
786-0 renal = system: 786-0 renal
A549 NSCLC = system: A549 NSCLC
ACHN renal = system: ACHN renal
BT-549 breast = system: BT-549 breast
HCT-116 colon = system: HCT-116 colon
HT29 colon = system: HT29 colon
NCI-H23 lung = system: NCI-H23 lung
OVCAR-8 ovarian = system: OVCAR-8 ovarian
SNB-19 CNS = system: SNB-19 CNS
UACC-257 melanoma = system: UACC-257 melanoma

SMILES	GI50 (786-0 renal)	TGI (786-0 renal)	GI50 (A549 NSCLC)	TGI (A549 NSCLC)	GI50 (ACHN renal)	TGI (ACHN renal)	GI50 (BT-549 breast)	TGI (BT-549 breast)	GI50 (HCT-116 colon)	TGI (HCT-116 colon)	GI50 (HT29 colon)	TGI (HT29 colon)	GI50 (NCI-H23 lung)	TGI (NCI-H23 lung)	GI50 (OVCAR-8 ovarian)	TGI (OVCAR-8 ovarian)	GI50 (SNB-19 CNS)	TGI (SNB-19 CNS)	GI50 (UACC-257 melanoma)	TGI (UACC-257 melanoma)
C[C@@H]1COC(Nc2ccc3ncnc(Nc4ccc(OCc5nccs5)c(Cl)c4)c3c2)=N1	8.31 µM and 7.15 µM	> 10 µM and 27.9 µM	> 10 µM and 5.3 µM	> 10 µM and 32.4 µM	0.446 µM and 0.432 µM	> 10 µM and 16.6 µM	3.65 µM and 3.28 µM	> 10 µM and 12.4 µM	3.94 µM and 4.75 µM	> 10 µM and 19 µM	5.04 µM and 4.33 µM	> 10 µM and 17.8 µM	8.41 µM and 8.45 µM	> 10 µM and 37 µM	2.97 µM and 2.65 µM	> 10 µM and 16.8 µM	> 10 µM and 12.4 µM	> 10 µM and 32.4 µM	> 10 µM and 5.59 µM	> 10 µM and 25.6 µM
COc1ccc2c(c1)[C@@]1(C)CCC3c4ccc(O)cc4CCC3C1C2 (some centres undefined)	15.3 µM	29.2 µM	12.6 µM	32.2 µM	15.9 µM	29.8 µM	22.4 µM	40.7 µM	14.4 µM	27.5 µM	3.96 µM	17.5 µM	16.8 µM	30.8 µM	17.1 µM	38.8 µM	16.2 µM	30.7 µM	17.7 µM	33.7 µM
O=[N+]([O-])c1ccc(N=Nc2c(O)[nH]c3ccccc23)cc1	–	61.7 µM	–	> 100 µM	–	26.3 µM	–	71.3 µM	–	> 96.4 µM	–	> 100 µM	–	> 100 µM	–	48.3 µM	–	> 100 µM	–	> 60.1 µM
Oc1cc(Cl)ccc1Cc1ccc(Cl)cc1O	18.4 µM	38 µM	14.7 µM	41.1 µM	10 µM	31.2 µM	4.22 µM	19.1 µM	4.95 µM	17.1 µM	17.5 µM	31.3 µM	3.21 µM	12.6 µM	15.1 µM	48.8 µM	14.3 µM	45.1 µM	14.7 µM	36.9 µM
O=C1OCC2=C1C(c1cccc(C(F)(F)F)c1)c1cc3c(cc1N2CCO)CCC3 (centres undefined)	0.289 µM	8.13 µM	0.201 µM	8.04 µM	0.441 µM	9.23 µM	0.219 µM	5.32 µM	0.175 µM	6.55 µM	0.167 µM	5.27 µM	0.321 µM	14.5 µM	0.203 µM	8.31 µM	0.215 µM	8.8 µM	6.5 µM	15.2 µM
COc1cc2ncn(-c3cc(OCc4ccccc4S(C)(=O)=O)c(C#N)s3)c2cc1OC	> 25 µM	> 25 µM	> 25 µM	> 25 µM	> 25 µM	> 25 µM	> 25 µM	> 25 µM	> 25 µM	> 25 µM	> 25 µM	> 25 µM	> 25 µM	> 25 µM	> 23.1 µM	> 25 µM	15.1 µM	> 25 µM	> 25 µM	> 25 µM
Cc1ccc(/C(=C/C=C(C#N)C#N)Sc2ccccn2)cc1	2.15 µM	5.64 µM	12.3 µM	31.8 µM	1.83 µM	3.52 µM	2.59 µM	6.85 µM	2.35 µM	5.71 µM	2.89 µM	8.41 µM	3.68 µM	10.9 µM	7.41 µM	24.3 µM	10.1 µM	> 45.5 µM	14.6 µM	28.1 µM
Cc1ccc2nc(N/N=C/c3cccc(C)n3)cc(C)c2c1	–	33.7 µM	–	43.4 µM	–	31.4 µM	–	33.3 µM	–	32.1 µM	–	27.3 µM	–	43.2 µM	–	49.5 µM	–	44.8 µM	–	31.8 µM
Cc1cn2c(=O)n(c1=O)Cc1ccccc1C2	68.7 µM	> 100 µM	> 100 µM	> 100 µM	> 100 µM	> 100 µM	48.4 µM	> 100 µM	27.3 µM	> 100 µM	> 100 µM	> 100 µM	> 100 µM	> 100 µM	46.6 µM	> 100 µM	> 100 µM	> 100 µM	> 100 µM	> 100 µM
COc1cc(-c2n/c(=C\c3c(O)[nH]c4ccccc34)cc3c2=Nc2ccccc2-3)cc(OC)c1OC	0.864 µM	31.7 µM	0.675 µM	> 100 µM	1.11 µM	> 100 µM	0.486 µM	2.47 µM	0.392 µM	2.44 µM	0.407 µM	2.53 µM	0.39 µM	> 100 µM	2.53 µM	> 100 µM	2.68 µM	> 100 µM	1.73 µM	> 100 µM
COc1ccc2c(c1)C(=O)c1c-2n(CCCN2CCOCC2)c(=O)c2cc([N+](=O)[O-])ccc12	< 0.01 µM	–	< 0.01 µM	3.01 µM	< 0.01 µM	< 0.0108 µM	< 0.01 µM	0.448 µM	< 0.01 µM	0.0454 µM	< 0.01 µM	> 100 µM	< 0.01 µM	< 0.01 µM	< 0.01 µM	> 50.6 µM	< 0.01 µM	> 36.5 µM	0.0504 µM	3.08 µM
Cc1ccc2[nH]c(C(=O)NN3C(=O)C(C)SC34CCCCC4C)c(-c3ccccc3)c2c1 (centres undefined)	22.2 µM	50.9 µM	15.9 µM	32.9 µM	17.3 µM	36.6 µM	18.8 µM	34.5 µM	17.4 µM	35.6 µM	15.5 µM	39.3 µM	24.7 µM	53.5 µM	20.9 µM	43.2 µM	27 µM	77.5 µM	20.4 µM	37.6 µM
COc1ccc(C(=O)CC(c2ccc(OC)c(OC)c2)c2c(O)c3ccccc3oc2=O)cc1OC (centres undefined)	–	> 100 µM	–	> 100 µM	–	> 100 µM	–	> 100 µM	–	> 100 µM	–	> 100 µM	–	> 100 µM	–	> 100 µM	–	> 100 µM	–	> 100 µM
C=C1C(=O)O[C@H]2C[C@@H]1CCC1(C)OC1CC/C(C)=C/CC[C@H]2C (some centres undefined)	18.4 µM	33.1 µM	19.7 µM	39 µM	> 100 µM	> 100 µM	23.5 µM	45.3 µM	17.7 µM	31.5 µM	20.1 µM	34.3 µM	19.6 µM	37.1 µM	26.8 µM	72.2 µM	16 µM	32.9 µM	19.2 µM	37.2 µM
